According to patent US6770644B1, “Hydroxamic acid derivatives, process for the production thereof and drug containing the same as the active ingredient” (Ono Pharmaceuticals Co., Ltd., priority 1999, dated 2004):

Columns and labels:
[1] = test system: IL-6 production from human synovial cells; assay: Inhibitory activity on IL-6 production from human synovial cells (IL-1β stimulated, ELISA); assay type: cell-based; details: Synovial cell, synovial cells from rheumatoid arthritis patients, IL-1β stimulation, 24 hours, read-out: 50% inhibitory concentration (IC50) on IL-6 production
Description: (2) The Measurement of an Inhibitory Activity on IL-6 Production from Human Synovial Cells
3.0×10^3 of synovial cells from rheumatoid arthritis patients were suspended in 200 μL of DMEM containing 10% FBS and incubated for a day and night in 96 well-microplate, followed by the incubation for 5 hours in serum-free DMEM. 20 μL of the test compound dissolved in DMSO at various concentrations and 80 μL of interleukin-1β (IL-1β (Genzyme Co., cat. No. 80-3688-01)) dissolved in DMEM containing 2.5% fetal bovine serum at the concentration of 5 ng/mL were added thereto. After the incubation for 24 hours, the supernatant (100 μL) was collected to measure the amount of IL-6 being produced using ELISA (R&D Systems Co., cat. No. D6050). Then the inhibitory activity of the test compound was calculated and the 50% inhibitory concentration (IC50) was determined.

[2] = test system: IL-6 production from A549 cells; assay: Inhibitory activity on IL-6 production from A549 cells (TNF-α stimulated, ELISA); assay type: cell-based; details: A549 cells (human lung epithelial cell line), TNF-α stimulation, 24 hours, read-out: 50% inhibitory concentration (IC50) on IL-6 production
Description: (1) The Measurement of an Inhibitory Activity on IL-6 Production from A549 Cells
1.5×10^4 of A549 cells (human lung epithelial cell line) were suspended in 100 μL of Dulbecco's Modified Eagle Medium (DMEM) containing 0.5% fetal bovine serum (abbreviated as FBS) and incubated for a day and night in 96 well-microplate. 20 μL of the test compound dissolved in dimethylsulfoxide (DMSO) at various concentrations and 80 μL of tumor necrosis factor-α (TNF-α (Genzyme Co., cat. No. TNF-H)) dissolved in serum-free DMEM at the concentration of 12.5 ng/mL were added thereto. After the incubation for 24 hours, the supernatant (100 μL) was collected to measure the amount of IL-6 being produced using enzyme linked immuno […] assay (ELISA) (R&D Systems Co., cat. No. D6050). Then the inhibitory activity of the test compound was calculated and the 50% inhibitory concentration (IC50) was determined.

- IC50 [1]: 41 nM
- IC50 [2]: 52 nM
Compound: O=C(CCCC[C@@H](O)c1ccc(-c2ccc(Cl)cc2)cc1)NO [example 3]
